According to US8119805B2, “Substituted disulfonamide compounds” (Gruenenthal GmbH, priority 2008, dated 2012):
Where a name gives a salt, the structure may show the parent alone.

Tests used:
[1] = target: T1, human B1R receptor (hB1R) (Homo sapiens, UniProt P46663); experiment: Functional investigation on the bradykinin 1 receptor (B1R), FLIPR Ca2+ assay, hB1R cells; assay type: cell-based; details: test substance 10 μM; CHO K1 cells transfected with human B1R gene; Fluo-4 Ca2+ signal; agonist Lys-Des-Arg9-bradykinin at EC80; % of maximum achievable inhibition; read-out: B1R antagonism, human [10 μM] % inhibition
T1 construct: expressed in transfected cells; host or cells: CHO K1 cells
T1 sequence (P46663 1-353): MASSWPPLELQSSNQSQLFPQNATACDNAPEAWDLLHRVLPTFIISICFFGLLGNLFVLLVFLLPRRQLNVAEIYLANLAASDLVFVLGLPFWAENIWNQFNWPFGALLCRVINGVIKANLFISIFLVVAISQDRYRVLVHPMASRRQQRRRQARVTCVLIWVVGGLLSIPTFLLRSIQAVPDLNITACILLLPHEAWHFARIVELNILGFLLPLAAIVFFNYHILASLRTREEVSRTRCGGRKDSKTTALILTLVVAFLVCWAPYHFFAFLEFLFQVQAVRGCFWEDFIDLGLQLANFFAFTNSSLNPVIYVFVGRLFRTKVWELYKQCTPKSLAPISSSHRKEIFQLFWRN
Method: (§1) The agonistic or antagonistic action of substances on the bradykinin 1 receptor (B1R) of the human and rat species can be quantified with ectopically expressing cell lines (CHO K1 cells) and with the aid of a Ca^2+-sensitive dyestuff (Fluo-4) in a fluorescent imaging plate reader (FLIPR). The value in % activation is based on the Ca^2+ signal after addition of Lys-Des-[…]-bradykinin (0.5 nM) or Des-[…]-bradykinin (100 nM). Antagonists lead to a suppression of the Ca^2+inflow after addition of the agonist. % inhibition compared with the maximum achievable inhibition is stated. The agonistic or antagonistic action of substances on the bradykinin 1 receptor (B1R) of the human and rat species can be determined with the following assay. In accordance with this assay, the Ca^2+ inflow through the channel is quantified with the aid of a Ca^2+-sensitive dyestuff (type Fluo-4, Molecular Probes Europe BV, Leiden, Holland) in a fluorescent imaging plate reader (FLIPR, Molecular Devices, Sunnyvale, USA). Chinese hamster ovary cells (CHO K1 cells) transfected stably with the human B1R gene (hB1R cells) or the B1R gene of the rat (rB1R cells) are used. For functional studies, these cells are plated out on black 96-well plates with a clear base (BD Biosciences, Heidelberg, Germany or Greiner, Frickenhausen, Germany) in a density of 20,000-35,000 cells/well. The cells are left overnight at 37° C. and 5% CO2 in culture medium (hB1R cells: Nutrient Mixture Ham's F12, Gibco Invitrogen GmbH, Karlsruhe, Germany or DMEM, Sigma-Aldrich, Taufkirchen, Germany; rB1R cells: D-MEM/F12, Gibco Invitrogen GmbH, Karlsruhe, Germany) with 10 vol. % FBS (foetal bovine serum, Gibco Invitrogen GmbH, Karlsruhe, Germany or PAN Biotech GmbH, Aidenbach, Germany). On the following day, the cells are loaded for 60 min at 37° C. with 2.13 μM Fluo-4 (Molecular Probes Europe BV, Leiden Holland) in HBSS buffer (Hank's buffered saline solution, Gibco Invitrogen GmbH, Karlsruhe, Germany) with 2.5 mM probenecid (Sigma-Aldrich, Taufkirchen, Germany) and 10 mM HEPES (Sigma-Aldrich, Taufkirchen, Germany). The plates are then washed 2× with HBSS buffer, and HBSS buffer which additionally contains 0.1% BSA (bovine serum albumin; Sigma-Aldrich, Taufkirchen, Germany), 5.6 mM glucose and 0.05% gelatine (Merck KGaA, Darmstadt, Germany) is added. After a further incubation of 20 minutes at room temperature, the plates are inserted into the FLIPR for the Ca^2+ measurement. Alternatively, the plates are washed with buffer A (15 mM HEPES, 80 mM NaCl, 5 mM KCl, 1.2 mM CaCl2, 0.7 mM MgSO4, 2 g/l glucose, 2.5 mM probenecid), buffer A is added and the plates are loaded with 2.5 μM Fluo-4 and 0.025% Pluronic F127 (Sigma-Aldrich, Taufkirchen, Germany). Thereafter, the cells are washed 2× with buffer A and incubated for 30 minutes at room temperature with buffer A, which additionally contains 0.05% BSA and 0.05% gelatine, and thereafter inserted into the FLIPR for the Ca^2+ measurement. The Ca^2+-dependent fluorescence is measured here before and after addition of substances (λex=488 nm, λem=540 nm). Quantification is by measurement of the highest fluorescence intensity (FC, fluorescence counts) over time. The FLIPR protocol consists of 2 additions of substance. Test substances (10 μM) are first pipetted on to the cells and the Ca^2+ inflow is compared with the control (hB1R: Lys-Des-[…]-bradykinin>=50 nM; rB1R: Des-[…]-bradykinin 10 μM). This gives the result in % activation based on the Ca^2+ signal after addition of Lys-Des-[…]-bradykinin (>=50 nM) or Des-[…]-bradykinin (10 μM). After incubation for 10-20 minutes, Lys-Des-[…]-bradykinin (hB1R) or Des-[…]-bradykinin (rB1R) at the EC80 concentration is applied and the inflow of Ca^2+ is likewise determined. Antagonists lead to a suppression of the Ca^2+ inflow. The percent inhibition compared to the maximum achievable inhibition is calculated. In order to determine the IC50 value, the substances are added in various concentrations. […]

[2] = target: T2, B1R receptor of the rat (rB1R) (Rattus norvegicus, UniProt P97583); experiment: Functional investigation on the bradykinin 1 receptor (B1R), FLIPR Ca2+ assay, rB1R cells; assay type: cell-based; details: test substance 10 μM; CHO K1 cells transfected with rat B1R gene; Fluo-4 Ca2+ signal; agonist Des-Arg9-bradykinin at EC80; % of maximum achievable inhibition; read-out: B1R antagonism, rat [10 μM] % inhibition
T2 construct: expressed in transfected cells; host or cells: CHO K1 cells
T2 sequence (P97583 1-337): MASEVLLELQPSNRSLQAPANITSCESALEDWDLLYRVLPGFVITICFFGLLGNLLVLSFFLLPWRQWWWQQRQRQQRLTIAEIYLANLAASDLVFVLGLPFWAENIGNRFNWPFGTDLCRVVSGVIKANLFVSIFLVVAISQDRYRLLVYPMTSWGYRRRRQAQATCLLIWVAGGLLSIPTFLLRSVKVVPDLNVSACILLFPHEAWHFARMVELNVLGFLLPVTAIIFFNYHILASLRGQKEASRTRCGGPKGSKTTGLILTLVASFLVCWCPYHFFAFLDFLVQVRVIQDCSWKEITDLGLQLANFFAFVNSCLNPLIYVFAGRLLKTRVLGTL
Method: as §1

Structure (SMILES) | inhibition at 10 µM [1] [%] | inhibition at 10 µM [2] [%]
Cc1cc(C)c(S(=O)(=O)N2CCC(CCS(=O)(=O)N3CCC(CCN4CCCC4)CC3)C2)c(C)c1 (stereo not shown) [Example 1, 1-(2-(1-(Mesitylsulfonyl)pyrrolidin-3-yl)ethylsulfonyl)-4-(2-(pyrrolidin-1-yl)ethyl)piperidine] | 83 | –
O=S(=O)(CCC[C@H]1CCCN1S(=O)(=O)c1ccc2ccccc2c1)N1CCN(c2ccncc2)CC1 [Example 2, (R)-1-(3-(1-(Naphthalen-2-ylsulfonyl)pyrrolidin-2-yl)propylsulfonyl)-4-(pyridin-4-yl)piperazine hydrochloride] | 102 | 84
O=S(=O)(CCC1CCN(S(=O)(=O)c2csc3ccccc23)C1)N1CCC(CCN2CCCC2)CC1 (stereo not shown) [Example 3, 1-(2-(1-(Benzo[b]thiophen-3-ylsulfonyl)pyrrolidin-3-yl)ethylsulfonyl)-4-(2-(pyrrolidin-1-yl)ethyl)piperidine] | 55 | –
Cc1cc(C)c(S(=O)(=O)N2CC[C@@H]2CCCS(=O)(=O)N2CCC(CCN3CCCC3)CC2)c(C)c1 [Example 4, (S)-1-(3-(1-(Mesitylsulfonyl)azetidin-2-yl)propylsulfonyl)-4-(2-(pyrrolidin-1-yl)ethyl)piperidine hydrochloride] | 76 | 13
CN1CCC(N2CCN(S(=O)(=O)CCCCC3CCCN3S(=O)(=O)c3cccc4ccccc34)CC2)CC1 (stereo not shown) [Example 5, 1-(1-Methylpiperidin-4-yl)-4-(4-(1-(naphthalen-1-ylsulfonyl)pyrrolidin-2-yl)butylsulfonyl)piperazine dihydrochloride] | 49 | 56
Cc1cc(C)c(S(=O)(=O)N2CCCC2CCCCS(=O)(=O)N2CCC(CCN3CCCC3)CC2)c(C)c1 (stereo not shown) [Example 6, 1-(4-(1-(Mesitylsulfonyl)pyrrolidin-2-yl)butylsulfonyl)-4-(2-(pyrrolidin-1-yl)ethyl)piperidine] | 61 | 44
COc1cc(C)c(S(=O)(=O)N2CCCC2CCCCS(=O)(=O)N2CCN(C3CCN(C)CC3)CC2)c(C)c1C (stereo not shown) [Example 7, 1-(4-(1-(4-Methoxy-2,3,6-trimethylphenylsulfonyl)pyrrolidin-2-yl)butylsulfonyl)-4-(1-methylpiperidin-4-yl)piperazine] | 38 | 58
COc1cc(C)c(S(=O)(=O)N2CCCC2CCCCS(=O)(=O)N2CCC(CCN3CCCC3)CC2)c(C)c1C (stereo not shown) [Example 8, 1-(4-(1-(4-Methoxy-2,3,6-trimethylphenylsulfonyl)pyrrolidin-2-yl)butylsulfonyl)-4-(2-(pyrrolidin-1-yl)ethyl)piperidine] | 59 | 46
CN1CCC(N2CCN(S(=O)(=O)CCCCC3CCCN3S(=O)(=O)c3c(Cl)cc(C(F)(F)F)cc3Cl)CC2)CC1 (stereo not shown) [Example 9, 1-(4-(1-(2,6-Dichloro-4-(trifluoromethyl)phenylsulfonyl)pyrrolidin-2-yl)butylsulfonyl)-4-(1-methylpiperidin-4-yl)piperazine] | 58 | 30
COc1cc(C)c(S(=O)(=O)N2CCCC(CCCS(=O)(=O)N3CCC(CCN4CCCC4)CC3)C2)c(C)c1C (stereo not shown) [Example 10, 1-(4-Methoxy-2,3,6-trimethylphenylsulfonyl)-3-(3-(4-(2-(pyrrolidin-1-yl)ethyl)piperidin-1-ylsulfonyl)propyl)piperidine hydrochloride] | 63 | 10
Cc1cc(C)c(S(=O)(=O)N2CCCC(CCCS(=O)(=O)N3CCC(CCN4CCCC4)CC3)C2)c(C)c1 (stereo not shown) [Example 11, 1-(Mesitylsulfonyl)-3-(3-(4-(2-(pyrrolidin-1-yl)ethyl)piperidin-1-ylsulfonyl)propyl)piperidine hydrochloride] | 65 | 26
Cc1cc(C)c(S(=O)(=O)N2CCC(CCCS(=O)(=O)N3CCC(CCN4CCCC4)CC3)CC2)c(C)c1 [Example 12, 1-(Mesitylsulfonyl)-4-(3-(4-(2-(pyrrolidin-1-yl)ethyl)piperidin-1-ylsulfonyl)propyl)piperidine] | 52 | –
Cc1cc(C)c(S(=O)(=O)N2CCC(CCCS(=O)(=O)N3CCN(C4CCN(C)CC4)CC3)CC2)c(C)c1 [Example 13, 1-(3-(1-(Mesitylsulfonyl)piperidin-4-yl)propylsulfonyl)-4-(1-methylpiperidin-4-yl)piperazine] | 53 | –
O=S(=O)(CCC1CCN(S(=O)(=O)c2c(Cl)cc(C(F)(F)F)cc2Cl)CC1)N1CCC(CCN2CCCC2)CC1 [Example 14, 1-(2,6-Dichloro-4-(trifluoromethyl)phenylsulfonyl)-4-(2-(4-(2-(pyrrolidin-1-yl)ethyl)piperidin-1-ylsulfonyl)ethyl)piperidine] | 58 | –
COc1cc(C)c(S(=O)(=O)N2CC(CCS(=O)(=O)N3CCC(CCN4CCCC4)CC3)CO2)c(C)c1C (stereo not shown) [Example 15] | 97 | 18
COc1cc(C)c(S(=O)(=O)N2CCC(CCS(=O)(=O)N3CCC(CCN4CCCC4)CC3)C2)c(C)c1C (stereo not shown) [Example 16, 1-(2-(1-(4-Methoxy-2,3,6-trimethylphenylsulfonyl)pyrrolidin-3-yl)ethylsulfonyl)-4-(2-(pyrrolidin-1-yl)ethyl)piperidine hydrochloride] | 97 | 13
COc1cc(C)c(S(=O)(=O)N2CCC[C@H]2CCCS(=O)(=O)N2CCN(c3nccs3)CC2)c(C)c1C [Example 40, (S)-2-(4-(3-(1-(4-Methoxy-2,3,6-trimethylphenylsulfonyl)pyrrolidin-2-yl)propylsulfonyl)piperazin-1-yl)thiazole] | 50 | –
